Data set [1] deals with HCT-116 cells. As to the kind of experiment: Cellular uptake and subcellular localization by fluorescence microscopy. It is filed as cell-based, human. The following applies: live HCT-116 cells, 10 μM, time lapse over 24 h. The procedure:
HCT-116 cells (ATCC CCL-247) were cultured in Dulbecco's modification of Eagle's medium (DMEM) with 4.5 g L^−1 glucose, […], and 5% heat inactivated fetal calf serum (FCS) in glass-bottom dishes. Fluorescent images were collected on a Leica (Wetzlar, Germany) DMI6000 inverted confocal microscope with a Yokogawa (Tokyo, Japan) spinning disk confocal head, Orca ER High Resolution B&W Cooled CCD camera (6.45 μm/pixel at 1×) (Hamamatsu, Sewickley, Pa.), Plan Apochromat 40×/1.25 na and 63×/1.4 na objective, and a Melles Griot (Carlsbad, Calif.) Argon/Krypton 100 mW air-cooled laser for 488, 568, and 647 nm excitations. Confocal z-stacks were acquired in all experiments. […]
Cellular uptake and localization of 1 in HCT-116 tumor cells was then evaluated using fluorescence microscopy. […] HCT-116 cells were treated with 10 μM 1 in DMEM containing 10% FCS, 100 U/mL penicillin-G, and 100 μg/mL streptomycin and analyzed by fluorescence microscopy. […] Within 6-12 h, fluorescence from 1 concentrated within vesicles surrounding the nucleus and remained in these structures (FIG. 4b). […]
The cellular uptake of localization of 1 in HCT-116 tumor cells was then evaluated using fluorescence microscopy. […] HCT-116 cells were treated with 10 μM 1 in DMEM containing 10% FCS, 100 U/mL penicillin-G and 100 μg/mL streptomycin and analyzed by fluorescence microscopy. […]

In data set [2] the target is T1, human migration inhibitory factor (hMIF) (Homo sapiens, UniProt P14174).
T1 construct: confirmed the presence of hMIF in the immunoprecipitated fraction of HCT-116 cell lysate; endogenous in cells; host or cells: HCT-116 cell lysate
T1 sequence (P14174 2-115 limits assumed): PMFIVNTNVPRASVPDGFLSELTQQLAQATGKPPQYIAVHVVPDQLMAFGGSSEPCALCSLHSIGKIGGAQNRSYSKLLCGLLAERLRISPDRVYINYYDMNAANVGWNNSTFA
The experiment in a line: Anti-IAF tag immunoprecipitation, LC-MS/MS identification and Western blot. It is filed as binding. The conditions noted are these: HCT-116 cell lysate, ~12 kDa band. An excerpt: A) Anti-IAF immunoprecipitation studies identify a ˜12 kDa band. Lane L1, L2 and L3 depict HCT116 cell lysate, an IAF dye elution (bands correspond to fragments of the anti-IAF mAb) and glycine wash, respectively. The ˜12 kDa band was identified in the glycine wash. B) Trypsin-digest LC-MS/MS analysis identified three peptides that overlapped with the hMIF protein (shown in red). C) Western blot analysis using a mouse anti-MIF mAb confirmed the presence of hMIF in the immunoprecipitated fraction of HCT-116 cell lysate, as well as in E. coli lysates bearing recombinanthMIF. Arrow denotes the position of hMIF. The upper bands arose from the mouse anti-IAF mAb used in this experiment (background).
Attention was then turned to screening for proteins that bind to the spirohexenolides. Using the affinity properties of the IAF probe 4, we deployed an anti-IAF tag immunoprecipitation protocol to isolate a 12 kDa band (Lane L3 in FIG. 9A). […] Western blot analysis (FIG. 9C) confirmed hMIF the identification of hMIF.
A general note: A western blot detects proteins with antibodies after separation by electrophoresis.

The next data set has as its system Bacillus subtilis 6633. As to the kind of experiment: Minimum inhibitory concentration (MIC) assay. In kind it is cell-based. The following applies: Bacillus subtilis 6633, 37° C. for 18 h, no visible bacterial growth, duplicates. The procedure: Minimum Inhibitory Concentration (MIC) Assay of Spirohexenolide A (1), using Bacillus subtilis 6633.
Spirohexenolide A (1) in dimethyl sulfoxide (DMSO) was diluted to 10, 15, 30, 60, 120, 250, 500, and 1000 μg/mL stocks in tryptic soy broth with a final concentration of 1% DMSO. B. subtilis, cultured for 18 h at 37° C. in tryptic soy broth, was inoculated at 1/10000 to a final volume of 200 μL per well on a 96 well plate and then treated with 2 μL of a stock solution of 1 (10, 15, 30, 60, 120, 250, 500, and 1000 μg/mL in tryptic soy broth containing 1% DMSO). […] The compound was tested in duplicates.

The conditions of data set [3]: mouse, in vivo.
Data set [4] relates to NCI-60 human tumor cell line. As to the kind of experiment: NCI-60 human tumor cell line screen, multiple dose / dose-response. In kind it is cell-based.
The next data set concerns melanoma. The experiment in a line: NCI-60 human tumor cell line screen, single dose. The following applies: dosed at 10 μM, single dose NCI-60. In kind it is cell-based.
In the next data set the test system is prostate. As to the kind of experiment: NCI-60 human tumor cell line screen, single dose. In kind it is cell-based. The conditions noted are these: dosed at 10 μM, single dose NCI-60.
Data set [5] relates to breast cancer cells (HeLa). As to the kind of experiment: Inhibition of mitosis. The conditions noted are these: by inhibiting the exit from anaphase. It is filed as cell-based.
For data set [6], the system named is HCT-116 cells. As to the kind of experiment: Cell cycle effects by three-color confocal fluorescence microscopy. In kind it is cell-based, human. An excerpt:
Images in a) and b) depict live cells. c) A confocal fluorescent image indicating the effects of 1 has on the cell structure. Cells treated as in a) were fixed with 0.1% formalin and stained for their DNA content with SYTO-60 (false colored in blue) (Wlodkowic et al., Cytometry A, 73:496-507 (2008)), actin with FITC-phalloidin (green) (Verderame et al., Proc Natl Acad Sci USA, 77:6624-6628 (1980)), and microtubules with BODIPY FL-paclitaxel (red) (Bicamumpaka et al., Int J Mol Med, 2:161-165 (1998)). For each experiment, HCT-116 cells were cultured to 10^6 cells/cm^2 in a 35 mm poly-D-lysine coated glass-bottom dish and treated with 1 mL of 10 μM 1 in Dulbecco's modified essential medium (DMEM) containing 10% fetal bovine serum (FBS), 100 U/mL penicillin-G and 100 μg/mL streptomycin.
The effects of 1 on the cell cycle were also evaluated. HCT-116 cells cultured in DMEM were treated 1 h before the onset of mitosis with 10 μM 1 in DMEM. After 12 h (several hours after the completion of mitosis), the cells were fixed for 5 min with 0.5% formalin and 0.1% glutaraldehyde in PBS pH 7.2, washed extensively with PBS pH 7.2, treated with a cocktail of fluorescent probes to visualize DNA, actin, and microtubules and examined using three-color confocal fluorescence microscopy. […]

Another data set concerns renal cancers. The experiment in a line: NCI-60 human tumor cell line screen, single dose. In kind it is cell-based. The conditions noted are these: dosed at 10 μM, single dose NCI-60.
In data set [7] the test system is neuroblastoma cells (Neuro2a). As to the kind of experiment: Inhibition of mitosis. The conditions noted are these: by inhibiting the exit from anaphase. In kind it is cell-based.
Data set [8] has as its system human colon tumor HCT-116 cell line. The following applies: for GI50: HCT-116 cells, MTT assay, in house.

For the molecule `CC1=C[C@]2(C)/C=C(C)/C=C/C[C@@H](OC(=O)CCCn3cc(CNC(=O)Cc4cc(=O)oc5cc(N(C)C)ccc45)nn3)/C=C3C=C/C(=C4\C(=O)O[C@]2(C[C@@H]1C)C4=O)OC/3` [probe 3], the “cell phenotype after treatment” value in the data set with HCT-116 cells [1] is on record as “characteristic apoptotic phenotype”.

For the molecule `CC1=C[C@]2(C)/C=C(C)/C=C/C[C@@H](OC(=O)CCC(=O)NCCCCCCNC(=O)Cc3cc(=O)oc4cc(N(C)C)ccc34)/C=C3C=C/C(=C4\C(=O)O[C@]2(C[C@@H]1C)C4=O)OC/3` [probe 4], the “protein isolated by the probe” value in data set [2] is “human migration inhibitory factor (hMIF)”.

By MIC is commonly meant the least concentration at which growth counts as inhibited. A higher MIC goes with weaker potency. By inhibition is commonly meant the relative decrease from the control value, in per cent. Low values mean a weak effect, high ones a strong effect. What is called IC50 is the concentration that inhibits the measured activity by half. A higher IC50 goes with a need for much substance. A word on the GI50: it is the concentration giving 50% growth inhibition. With spirohexenolide A, in the data set with Bacillus subtilis 6633, the minimal inhibitory concentration (MIC) worked out at 12.25 µM. In addition, in [3], the “single dose producing toxicity” value was in the range of 6 to 10 mg/kg. Also, the “cell phenotype after treatment” value with HCT-116 cells [1] was “characteristic apoptotic phenotype”. Further, the “activity (GI50) by cell line” value in data set [4] (leukemia (CCRF-CEM, MOLT-4, RPMI-8226), lung cancer (HOP-92), colon cancer (SW-629) cell lines) is reported as “enhanced activity”. In addition, the “sensitivity in dose-response assays” value in data set [4] (leukemia, renal cancer, and melanoma cell lines) is “selective sensitivity”. In addition, the inhibition amounted to 96% with melanoma, 85% in the data set on prostate and 95% with renal cancers. Also, the inhibition of mitosis entry in data set [5] is recorded as “inhibit mitosis”; in the data set on HCT-116 cells [6] (colon cancer cells (HCT111), by inhibiting the exit from anaphase) it was “inhibit mitosis”; in [7] it was “inhibit mitosis”. Besides, the “effect on the cell cycle” value in the data set with HCT-116 cells [6] (10 μM, treated 1 h before onset of mitosis, fixed after 12 h) is given as “induced cell cycle arrest during mitosis”. The half-maximal inhibitory concentration (IC50) in data set [8] turned out to be 500 nM. Besides, in data set [8], the GI50 was determined as 36 ± 5.1 µM.

In data set [8], spirohexenolide B registered a GI50 of 61.2 ± 7.8 µM.

The record behind these values is patent US8653283B2, “Anticancer agents” (The Regents of The University of California, priority 2009, dated 2014).
